Assay results: patent EP3165222A1, “USE OF PHTHALIDE COMPOUND” (Everfront Biotech Inc., priority 2014, dated 2016)
Where two headings read alike, the source gives them in different places.

Key:
ATXN3 protein = assay: In vitro cell test: GFP-ATXN3 protein aggregation/expression in transfected cells by fluorescence microscopy; assay type: cell-based, human; conditions: pEGFP-C1-Ataxin3Q84 transfected HEK 293T or neural stem cells; 5 µg/ml for 24 hours; versus untreated groups; Figure 1
Experimental: In this experiment, the effects of BP and ligustilide on the protein expression level of SCA3 protein were analyzed. Frist, pEGFP-C1-Ataxin3Q84 plasmid (i.e., a plasmid comprising Ataxin gene with abnormal CAG repeat number (84Q)) containing green fluorescent protein or pEGFP-C1-Ataxin3Q28 plasmid (i.e., a plasmid comprising Ataxin gene with normal CAG repeat number (28Q)) (Addgene company, U.S.) was transfected into human embryonic kidney (HEK) cells 293T (Bioresource Collection and Research Center, Taiwan) or neural stem cells (NSC). The cells were then cultured in a DMEM medium (Dulbecco's modified Eagle's medium, Thermo) containing 10% fetal bovine serum (Gibco), and incubated in an incubator with 5% CO2 at 37°C. Then, the cells were treated with 5 µg/ml BP (A10353, purchased from Alfa Aesar, U.S.; with a purity of 95%) or ligustilide (5393-015M1, purchased from Pharmaron, China) for 24 hours. The protein aggregation of GFP-ATXN3 protein in the cells of each group was observed by a fluorescence microscopy. Wild type cells and cells transfected with green fluorescent protein (GFP) were used as the control group.

[1] = Safe dose test (toxicity of BP to zebrafish, survival rate); conditions: in vivo, after 48 hours, 28.5°C, Figure 2, read-out: survival rate of the zebrafishes
Experimental: In this experiment, the zebrafishes that were used as the animal models in the experimental group were Tg (HuC:GFP), which is characterized by its primary sensory neurons (Rohon-Beard cells) that can produce fluorescence. The zebrafishes used in the control group were wild type zebrafishes. All of the zebrafishes were provided by TZCAS (Taiwan Zebrafish Core Facility at Academia Sinica, Taiwan) and TZCF (Taiwan Zebrafish Core Facility, Taiwan). First, the toxicity of BP to zebrafish was tested by injecting different dose of BP to zebrafishes. The zebrafishes were then kept at 28.5°C. After 48 hours, the survival rate of the zebrafishes was observed.

zebrafish = assay: Behavioral test in zebrafish injected with ATXN3 MO (tail stimulation); assay type: in vivo; conditions: Figure 3
Experimental: Morpholinos (MO) was produced by modifying the structure of a fragment of DNA, which can block protein translation process of mRNA to inhibit the expression of a target protein. The ATXN3 MO used in this experiment has a sequence of 5'-[…]-3' (SEQ ID NO. : 1), and the standard used in the control group is 5'-[…]-3' (SEQ ID NO. : 2) (hereinafter referred to as "Ct MO"). Before injection, the MO was dissolved in ddH2O, stored at -20°C for used. Zebrafish eggs were micro-injected within about one hour after birth. After 21 to 48 hours post fertilization (hpf), the zebrafish eggs were micro-injected with ATXN3 MO or ATXN3 MO in combination with 250 mg/kg BP, 125 mg/kg BP or 62.5 mg/kg BP. After 48 hours, the fish tails were stimulated by tips, and the number of stimulation causing movement of the fish tails was measured.

motor neurons = assay: Confocal microscopy test of motor neurons in zebrafish injected with ATXN3 MO; assay type: in vivo; conditions: ATXN3 MO in combination with 250 mg/kg BP; after 48 hours; Figure 4
Experimental: Zebrafish eggs were micro-injected with 300 nM/µl ATXN3 MO, 250 mg/kgBP, or ATXN3 MO in combination with 250 mg/kgBP, 125 mg/kg BP or 62.5 mg/kgBP. After 48 hours, the zebrafishes were enclosed in glass slides. The motor neurons in the living body were recorded by a confocal fluorescence microscopy.

MJD84.2 transgenic mice [2] = assay: Local motor test in MJD84.2 transgenic mice (SCA3 mice); assay type: in vivo; conditions: BP 100 or 500 mg/kg/bid, ligustilide 100 mg/kg/bid, versus untreated group and olive oil group; for total moving distance: Figure 5A; for moving times: Figure 5B; for moving time: Figure 5C
Experimental: (§1) MJD84.2 transgenic mice (i.e., the mice being transfected with ATXN3 gene with human 84 CAG repeat sequence, hereinafter referred to as "SCA3 mice") were used in this experiment. MJD84.2 transgenic mice were an animal model used for studying spinal cerebellar atrophy.
(§2) The MJD84.2 transgenic mice of […] were randomly divided into five groups, each group had six mice. The mice were treated with the following conditions for two weeks: (1) untreated group; (2) treated with olive oil (i.e., only treated with the adjuvant); (3) treated with 100 mg/kg/bid (bis in die) of BP; (4) treated with 500 mg/kg/bid of BP; (5) treated with 100 mg/kg/bid of ligustilide. The wild type mice (WT) was used as a control group. After 2 weeks, local motor and rotarod test were conducted.
Local motor test was performed to test the exercise ability of mice. 10-week-old mice were tested on rotarod once every three weeks. Then, the mice were placed in a transparent acrylic box 2 hours and were free to move. A behavioral test was conducted for 1 hour by using VersaMax 420 (AccuscanInstrumentsInc, USA), and the data was analyzed by statistical methods.

MJD84.2 transgenic mice [3] = assay: Rotarod test in MJD84.2 transgenic mice (SCA3 mice); assay type: in vivo; conditions: BP 100 or 500 mg/kg/bid, ligustilide 100 mg/kg/bid; versus untreated group and olive oil group; Figure 6
Experimental: as §1, §2
Rotarod test was performed to test the balance and grip ability of mice. The mice were given practice two weeks before the first behavioral test. The experiment was conducted using an IITC rotarod (IITC Life Science Inc, USA). 10-week-old mice were tested on a rotarod once every three weeks. The test condition was set as a linear acceleration from 4 to 40 rpm within 300 seconds. The time (sec) that the mice fell from the rotarod (i.e., latency to fall) was recorded. […] After the rotarod test, the body weight of the mice were recorded. […]

Purkinje cells = assay: Immunohistochemistry staining of cerebellar slices of SCA3 mice; assay type: in vivo; conditions: cerebellum slices; BP 100 or 500 mg/kg/bid, ligustilide 100 mg/kg/bid; sacrificed at 20 and 24 weeks; versus untreated and olive oil groups; Figure 7
Experimental: (§3) The MJD84.2 transgenic mice (i.e., the mice with modified ATXN3 gene) of eight weeks of age were randomly divided into five groups, with six mice in each group. The mice were treated with the following conditions: (1) untreated group; (2) treated with olive oil; (3) treated with 100 mg/kg/bid of BP; (4) treated with 500 mg/kg/bid of BP; (5) treated with 100 mg/kg/bid of ligustilide. Then, the mice were sacrificed at the age of 20 weeks and 24 weeks. Cerebellar slices staining and tissue protein extraction were performed (see Example 5). Whole brain tissue of the mice was fixed overnight with 3.7% formalin and embedded in paraffin. The samples were sectioned (4 µm) by using a Quanto kit (Thermo, USA) and mounted on a microscope slide.

calbindin = assay: Western blotting of cerebellum tissue of SCA3 mice, anti-calbindin antibody; assay type: in vivo; conditions: BP 100 or 500 mg/kg/bid, ligustilide 100 mg/kg/bid, versus untreated and olive oil groups, Figure 8
Experimental: as §3
(§4) The cerebellums of the mice sacrificed in example 4 were separated from the whole brain, and the proteins in the cerebellums were extracted. The purified proteins were analyzed by Western blotting assay using an anti-ubiquitin antibody and an anti-calbindin antibody, respectively, to determine the changes in the protein expression level of ubiquitin and calbindin in the cerebellum tissue of SCA3 mice in each group. β-actin was used as an internal control group.

ubiquitin = assay: Western blotting of cerebellum tissue of SCA3 mice, anti-ubiquitin antibody; assay type: in vivo; conditions: mice treated with BP, versus untreated and olive oil groups, Figure 9
Experimental: as §3, §4

Structure (SMILES) | fluorescent signal of Ataxin3Q84 (ATXN3 protein) | survival at 48 h ([1]; 50 mg/kg BP injected) | survival at 48 h ([1]; 250 mg/kg BP injected) | survival at 48 h ([1]; 500 mg/kg BP injected) | restoring the behavioral ability of the diseased zebrafishes (zebrafish; 250 mg/kg BP compared with the other BP doses) | amount of stimulation-caused movement of fish tails (zebrafish; ATXN3 MO in combination with 250, 125 or 62.5 mg/kg BP, after 48 hours, versus ATXN3 MO alone) | number of motor neurons (motor neurons) | total moving distance (MJD84.2 transgenic mice [2]) | moving times (MJD84.2 transgenic mice [2]) | moving time (MJD84.2 transgenic mice [2]) | balance and grip ability (latency to fall) (MJD84.2 transgenic mice [3]) | number of Purkinje cells (Purkinje cells) | protein expression level of calbindin (calbindin) | content of the ubiquitin ubiquitination proteins (ubiquitin)
CCCC=C1OC(=O)c2ccccc21 [BP, n-butylidenephthalide] | significantly lower | > 75% | > 75% | 50% | the most obvious effect | restored (i.e., decreased) | can maintain the number of motor neurons | higher | higher | higher | better | significantly higher | significantly higher | significantly higher
CCCC=C1OC(=O)C2=C1CCC=C2 [ligustilide, 3-butylidene-4,5-dihydrophthalide] | significantly lower | – | – | – | – | – | – | higher | higher | higher | better | significantly higher | significantly higher | –
